{"source": "patent US12370202B2", "about": "“Methods and compositions for inhibiting the NLRP3 inflammasome and/or LON protease” (TRITERPENOID THERAPEUTICS, INC., priority 2019, dated 2025)", "key": {"LN227": {"system": "LN227", "assay": "GBM cell growth (confluence), IncuCyte", "assay_type": "cell-based, human", "conditions": "nanomolar concentrations", "method": "(§1) FIG. 8 is a set of line graphs. CDDO-2P-Im suppresses growth of TMZ-resistant human GBM cells in vitro. […] Reduction in confluence is accompanied by the detachment and death of GBM cells. The data reveal that the relatively TMZ-resistant U-87MG is equivalent to LN227 in its sensitivity to CDDO-2P-Im.\n(§2) To define the capacity of CDDO-2P-IM to suppress the growth and viability of GBM, several well-characterized human GBM cell lines (U251, U-87MG, LN227, Gli36Δ5), primary cultures of patient-derived GBM cells (UVM04, D028), and normal human astrocytes (provided by Dr. Arti Gaur, Dartmouth College) were utilized.\n(§3) The activity of CDDO-2P-IM in cultures of human GBM was assessed and similar nanomolar (nM) potency was observed. […] These changes in confluence observed by Incucyte® corresponded with a reduction in cell viability. Doses of CDDO-2P-IM that result in complete cell death of the LN227, U251 and U-87MG cell lines had no effect on the viability of primary human astrocytes in vitro (not shown)."}, "U-87MG": {"system": "U-87MG", "assay": "GBM cell growth (confluence), IncuCyte", "assay_type": "cell-based, human", "method": "as §1, §2, §3"}, "CCL2": {"system": "CCL2", "assay": "CCL2 expression in LPS-stimulated human macrophages, RT-qPCR", "assay_type": "cell-based", "conditions": "500 pM, 16 hours pretreatment, then 10 ng/ml LPS 24 hours", "method": "FIG. 10 is a bar graph. CDDO-Me, CDDO-Im, CDDO-2P-Im, and CDDO-3P-Im inhibit expression of CCL2 in human macrophages at picomolar concentrations.\nHuman peripheral blood monocytes were isolated using CD14 magnetic beads and differentiated with 20 ng/ml M-CSF for with 5 days and pretreated or not with 300 nM CDDO-Me; 500 pM CDDO-Im; 500 pM CDDO-2p-Im; 500 pM CDDO-3p-Im for 16 hours, followed by stimulation with 10 ng/ml LPS for an additional 24 hours. Total RNA was extracted and analyzed by RT-qPCR (Tagman) for cytokine expression."}, "ARH77 cells": {"system": "ARH77 cells", "assay": "MM cell proliferation (confluence), IncuCyte imaging", "assay_type": "cell-based, human", "conditions": "72 hours", "method": "(§4) FIG. 2 is a bar graph. CDDO-2P-Im inhibits proliferation of multiple myeloma cell line in vitro. 5T33MM, RPMI8226, and ARH77 cells were seeded in 96-well plates and incubated with CDDO-2P-Im (50 nM-150 nM). Confluence (cell proliferation) was measured using IncuCyte imaging after 72 hours. *p<0.01 compared to control.\n(§5) FIG. 3 is a bar graph. […] Shown here are results for 5T33MM (50 nM TTX01/7.5 nM IXZ); RPMI8226 (100 nM TTX01/7.5 nM IXZ); and ARH77 (150 nM TTX01/10 nM IXZ). Confluence (cell proliferation) was measured using IncuCyte imaging after 72 hours.\n(§6) To examine tumor-intrinsic effects of CDDO-2P-IM in the 5T33MM cell line and in human MM cells, conducted a series of in vitro studies was conducted. For these experiments, 96-well plates were first coated in poly-L-ornithine before cells were seeded (in triplicate), including the murine 5T33MM and the human RPMI8226, and ARH77 cell lines (15,000 cells per well). Cells were incubated in IncuCyte™ Live-Cell Analysis System for 72 hours (images were taken every 4 hours). To define dose-dependent effect of CDDO-2P-IM, cells were exposed to concentrations ranging from 50 nM to 150 nM. To examine potential synergy of CDDO-2P-IM with IXZ, MM cells were exposed to IXZ (7 nM-10 nM) either alone or in combination with CDDO-2P-IM."}, "RPMI8226 cells": {"system": "RPMI8226 cells", "assay": "MM cell proliferation (confluence), IncuCyte imaging", "assay_type": "cell-based, human", "conditions": "72 hours", "method": "as §4, §5, §6"}, "U251": {"system": "U251", "assay": "GBM cell growth (confluence), IncuCyte", "assay_type": "cell-based, human", "conditions": "not shown", "method": "as §2, §3"}}}
{"smiles": "CC1(C)CC[C@]2(C(=O)n3cnc(-c4ccccn4)c3)CC[C@]3(C)[C@H](C(=O)C=C4[C@@]5(C)C=C(C#N)C(=O)C(C)(C)[C@@H]5CC[C@]43C)[C@@H]2C1", "note": "[CDDO-2P-Im, 1-[2-Cyano-3,12-dioxooleana-1,9(11)-dien-28-oyl]-4(-pyridin-2-yl)-1H-imidazole]", "values": [{"measurement": "confluence (growth)", "setting": "LN227", "value": "dose-dependent reduction"}, {"measurement": "confluence (growth)", "setting": "U-87MG; nanomolar concentrations", "value": "dose-dependent reduction"}, {"measurement": "GBM cell kill, combination with TMZ", "setting": "U-87MG; suboptimal dose of CDDO-2P-Im combined with TMZ, significance at 0.005 or greater", "value": "significant gain"}, {"measurement": "expression of CCL2", "setting": "CCL2", "value": "inhibit"}, {"measurement": "proliferation (confluence)", "setting": "ARH77 cells; 50 nM-150 nM", "value": "significant dose-dependent suppressive effects"}, {"measurement": "proliferation (confluence), combination with IXZ", "setting": "ARH77 cells; 150 nM TTX01/10 nM IXZ", "value": "act synergistically"}, {"measurement": "proliferation (confluence), agent added alone", "setting": "ARH77 cells; 150 nM TTX01 or 10 nM IXZ alone", "value": "only partially effective"}, {"measurement": "proliferation (confluence)", "setting": "RPMI8226 cells; 50 nM-150 nM", "value": "significant dose-dependent suppressive effects"}, {"measurement": "proliferation (confluence), combination with IXZ", "setting": "RPMI8226 cells; 100 nM TTX01/7.5 nM IXZ", "value": "act synergistically"}, {"measurement": "proliferation (confluence), agent added alone", "setting": "RPMI8226 cells; 100 nM TTX01 or 7.5 nM IXZ alone", "value": "only partially effective"}, {"measurement": "confluence (growth)", "setting": "U251", "value": "dose-dependent reduction"}]}
